The record followed here is patent US20210030654A1, “ANTIOXIDANT COMPLEX AND COMPOSITION FOR FORMING SAME” (priority 2018, published 2021).

The subject of data set [1] is Human red blood cells. The data set can be described thus: CAP-e bioassay (cellular antioxidant protection assay of red blood cells). Type of data set: cell-based. As to conditions: AAPH-induced oxidative damage, FIGS. 3-5. As to the method:
Cellular antioxidant protection (CAP-e) assay of red blood cells was used to evaluate the capacity of antioxidant complexes to protect cells from oxidative stress after the antioxidant complexes enter the cells.
Human red blood cells were treated for 20 minutes using the antioxidant complex serially diluted in physiological saline. During this incubation period, the antioxidant complexes that may pass through a cell membrane may enter the cells. After exposure of the red blood cells to the antioxidant complex which was tested twice for each dose of the antioxidant complex, the red blood cells were washed twice with PBS to remove the antioxidant complex that was not absorbed by the cells.
The red blood cells were loaded with an indicator dye DCF-DA that becomes fluorescent when oxidized, and then a peroxyl free radical generator AAPH was added thereto to induce oxidative damage to the cells. A relative fluorescence intensity of each cell culture was measured at 488 nanometers using a Tecan Spectrafluor plate reader (Tecan, Männedorf, Switzerland). A reference for oxidation at the cellular level was defined based on a low fluorescence intensity of untreated control cells (cells treated with PBS but not treated with a test product or AAPH). A positive control for cellular oxidative damage was defined as red blood cells exposed to AAPH alone under the absence of the antioxidant complex. […]

Data set [2] is described as follows: Solubility. Type of data set: physicochemical. As to conditions: powder introduced into physiological saline. An excerpt:
The simple mixture is not preferable for a preparation method of the antioxidant complex according to the inventive concept.

Turning to `O=C1c2c(O)cc(O)cc2O[C@H](c2ccc(O)c(O)c2)[C@H]1O` [dihydroquercetin powder, dihydroquercetin], in data set [1], the “intracellular antioxidant capacity / cell protective capacity in CAP-e analysis” value is given as “did not exhibit the intracellular antioxidant capacity”. For the same compound, the “solubility in physiological saline” value in data set [2] was “almost completely insoluble”.
